In ChEMBL document CHEMBL1201862, “PubChem BioAssay data set” (2004):
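Test compounds were applied to cells in 96-well plates for 48 hours at 5 doses. GI50: concentration for 50% inhibition of growth.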 The source made the active and inactive calls. No stated cut-off is given here; in the data, active = GI50 up to about 1.1 µM and inactive = higher.

Columns and labels:
Assay in all cases: DTP human tumour cell line panel, 48 h
[1] = system: SK-OV-3
[2] = system: HL-60
[3] = system: A498
[4] = system: IGROV-1
[5] = system: HOP-18
[6] = system: SNB-19
[7] = system: OVCAR-4
[8] = system: DMS-114
[9] = system: DMS-273
[10] = system: U-251
[11] = system: HCT-15
[12] = system: SF-268
[13] = system: HCC 2998
[14] = system: UACC-257
[15] = system: HOP-92
[16] = system: LOX IMVI
[17] = system: SN12C
[18] = system: SK-MEL-28
[19] = system: SW-620
[20] = system: UACC-62
[21] = system: A549
[22] = system: 786-0
[23] = system: SF-295
[24] = system: RXF 631
[25] = system: HCT-116
[26] = system: K562
[27] = system: HOP-62
[28] = system: M19-MEL
[29] = system: CAKI-1
[30] = system: TK-10
[31] = system: KM-20L2
[32] = system: ACHN
[33] = system: HT-29
[34] = system: NCI-H23
[35] = system: CCRF-CEM
[36] = system: LXFL 529
[37] = system: NCI-H226
[38] = system: SR
[39] = system: RPMI-8226
[40] = system: OVCAR-8
[41] = system: Malme-3M
[42] = system: M14
[43] = system: NCI-H460
[44] = system: SK-MEL-5
[45] = system: UO-31
[46] = system: COLO 205
[47] = system: OVCAR-3
[48] = system: MOLT-4
[49] = system: OVCAR-5
[50] = system: XF498
[51] = system: RXF 393
[52] = system: SK-MEL-2
[53] = system: DLD-1
[54] = system: SNB-75
[55] = system: EKVX
[56] = system: SNB-78
[57] = system: NCI-H522
[58] = system: SF-539
[59] = system: KM12

Compound: CCOC(=O)C1C2CCC(C2)C1(CCl)C(=O)OCC (stereo not given)
- GI50 [1]: > 100 µM (inactive)
- GI50 [2]: > 100 µM (inactive)
- GI50 [3]: > 100 µM (inactive)
- GI50 [4]: > 100 µM (inactive)
- GI50 [5]: > 100 µM (inactive)
- GI50 [6]: > 100 µM (inactive)
- GI50 [7]: > 100 µM (inactive)
- GI50 [8]: > 100 µM (inactive)
- GI50 [9]: > 100 µM (inactive)
- GI50 [10]: > 100 µM (inactive)
- GI50 [11]: > 100 µM
- GI50 [12]: > 100 µM (inactive)
- GI50 [13]: > 100 µM (inactive)
- GI50 [14]: > 100 µM (inactive)
- GI50 [15]: 36.6 µM (inactive)
- GI50 [16]: > 100 µM (inactive)
- GI50 [17]: > 100 µM (inactive)
- GI50 [18]: > 100 µM (inactive)
- GI50 [19]: > 100 µM (inactive)
- GI50 [20]: > 100 µM (inactive)
- GI50 [21]: > 100 µM (inactive)
- GI50 [22]: > 100 µM (inactive)
- GI50 [23]: > 100 µM (inactive)
- GI50 [24]: > 100 µM (inactive)
- GI50 [25]: > 100 µM (inactive)
- GI50 [26]: > 100 µM (inactive)
- GI50 [27]: > 100 µM (inactive)
- GI50 [28]: > 100 µM (inactive)
- GI50 [29]: > 100 µM (inactive)
- GI50 [30]: > 100 µM (inactive)
- GI50 [31]: > 100 µM (inactive)
- GI50 [32]: > 100 µM (inactive)
- GI50 [33]: > 100 µM (inactive)
- GI50 [34]: > 100 µM (inactive)
- GI50 [35]: > 100 µM (inactive)
- GI50 [36]: > 100 µM (inactive)
- GI50 [37]: > 100 µM (inactive)
- GI50 [38]: > 100 µM (inactive)
- GI50 [39]: > 100 µM (inactive)
- GI50 [40]: > 100 µM (inactive)
- GI50 [41]: > 100 µM (inactive)
- GI50 [42]: > 100 µM (inactive)
- GI50 [43]: > 100 µM (inactive)
- GI50 [44]: > 100 µM (inactive)
- GI50 [45]: > 100 µM (inactive)
- GI50 [46]: > 100 µM (inactive)
- GI50 [47]: > 100 µM (inactive)
- GI50 [48]: > 100 µM (inactive)
- GI50 [49]: > 100 µM (inactive)

Compound: COC1=CC(=O)C(Br)=CC1=O
- GI50 [1]: > 100 µM (inactive)
- GI50 [2]: 5.32 µM (inactive)
- GI50 [50]: 16.9 µM (inactive)
- GI50 [4]: 17.3 µM (inactive)
- GI50 [51]: 18.2 µM (inactive)
- GI50 [52]: 20.5 µM (inactive)
- GI50 [6]: 17.8 µM (inactive)
- GI50 [53]: 32.3 µM (inactive)
- GI50 [7]: 17.9 µM (inactive)
- GI50 [54]: 15.2 µM (inactive)
- GI50 [8]: 20.5 µM (inactive)
- GI50 [9]: > 10 µM (inactive)
- GI50 [55]: 25.1 µM (inactive)
- GI50 [11]: 21.6 µM
- GI50 [12]: 18.6 µM (inactive)
- GI50 [13]: 36.3 µM (inactive)
- GI50 [14]: 17.3 µM (inactive)
- GI50 [15]: 15.9 µM (inactive)
- GI50 [16]: 18.2 µM (inactive)
- GI50 [17]: 18.5 µM (inactive)
- GI50 [18]: 19.5 µM (inactive)
- GI50 [19]: 23.2 µM (inactive)
- GI50 [20]: 17.6 µM (inactive)
- GI50 [21]: > 100 µM (inactive)
- GI50 [22]: 18.6 µM (inactive)
- GI50 [24]: 31.6 µM (inactive)
- GI50 [26]: 3.06 µM (inactive)
- GI50 [27]: > 100 µM (inactive)
- GI50 [28]: 17.7 µM (inactive)
- GI50 [29]: 18.4 µM (inactive)
- GI50 [30]: 19.9 µM (inactive)
- GI50 [31]: 33.3 µM (inactive)
- GI50 [56]: > 10 µM (inactive)
- GI50 [33]: 19.2 µM (inactive)
- GI50 [34]: 18.9 µM (inactive)
- GI50 [57]: 8.69 µM (inactive)
- GI50 [35]: 2.54 µM (inactive)
- GI50 [36]: 17.2 µM (inactive)
- GI50 [39]: 21.6 µM (inactive)
- GI50 [40]: 26.9 µM (inactive)
- GI50 [41]: 21 µM (inactive)
- GI50 [42]: 19 µM (inactive)
- GI50 [43]: > 100 µM (inactive)
- GI50 [44]: 17.9 µM (inactive)
- GI50 [45]: 17.5 µM (inactive)
- GI50 [46]: 16.7 µM (inactive)
- GI50 [48]: 3.3 µM (inactive)
- GI50 [49]: > 10 µM (inactive)

Compound: Cc1cc(NS(=O)(=O)c2ccc(NC(=O)c3cccc4c(Nc5ccc(S(=O)(=O)N=C(N)N)cc5)c5ccccc5nc34)cc2)no1
- GI50 [1]: > 100 µM (inactive)
- GI50 [2]: > 100 µM (inactive)
- GI50 [3]: > 100 µM (inactive)
- GI50 [4]: > 100 µM (inactive)
- GI50 [51]: > 100 µM (inactive)
- GI50 [6]: > 100 µM (inactive)
- GI50 [53]: > 100 µM (inactive)
- GI50 [7]: > 100 µM (inactive)
- GI50 [54]: > 100 µM (inactive)
- GI50 [58]: > 100 µM (inactive)
- GI50 [9]: > 100 µM (inactive)
- GI50 [10]: > 100 µM (inactive)
- GI50 [55]: > 100 µM (inactive)
- GI50 [11]: > 100 µM
- GI50 [12]: > 100 µM (inactive)
- GI50 [13]: > 100 µM (inactive)
- GI50 [14]: > 100 µM (inactive)
- GI50 [15]: > 100 µM (inactive)
- GI50 [16]: > 100 µM (inactive)
- GI50 [17]: > 100 µM (inactive)
- GI50 [18]: > 100 µM (inactive)
- GI50 [19]: > 100 µM (inactive)
- GI50 [20]: > 100 µM (inactive)
- GI50 [21]: > 100 µM (inactive)
- GI50 [22]: > 100 µM (inactive)
- GI50 [23]: > 100 µM (inactive)
- GI50 [24]: > 100 µM (inactive)
- GI50 [25]: > 100 µM (inactive)
- GI50 [26]: > 100 µM (inactive)
- GI50 [27]: > 100 µM (inactive)
- GI50 [29]: > 100 µM (inactive)
- GI50 [30]: > 100 µM (inactive)
- GI50 [31]: > 100 µM (inactive)
- GI50 [56]: > 100 µM (inactive)
- GI50 [32]: > 100 µM (inactive)
- GI50 [33]: > 100 µM (inactive)
- GI50 [34]: > 100 µM (inactive)
- GI50 [57]: > 100 µM (inactive)
- GI50 [36]: > 100 µM (inactive)
- GI50 [37]: > 100 µM (inactive)
- GI50 [38]: > 100 µM (inactive)
- GI50 [39]: > 100 µM (inactive)
- GI50 [40]: > 100 µM (inactive)
- GI50 [41]: > 100 µM (inactive)
- GI50 [59]: > 100 µM (inactive)
- GI50 [42]: > 100 µM (inactive)
- GI50 [43]: > 100 µM (inactive)
- GI50 [44]: > 100 µM (inactive)
- GI50 [45]: > 100 µM (inactive)
- GI50 [46]: > 100 µM (inactive)
- GI50 [47]: > 100 µM (inactive)
- GI50 [48]: > 100 µM (inactive)
- GI50 [49]: > 100 µM (inactive)
